Results taken from patent publication US20170071976A1, “PHARMACEUTICAL SOLUTION HAVING ANTI-TUMOR EFFECT-ENHANCING AND TOXICITY-REDUCING EFFECT, AND PHARMACEUTICAL COMPOSITION COMPRISING SAME” (priority 2014, published 2017).

Legend:
Assay in all cases: MTT assay: in vitro inhibition of growth by deuterium oxide
Format in all cases: cell-based, human
[1] = system: NCI-1975 lung cancer cell line
Method: (§1) Studies of in vitro inhibition of growth of human tumor cells by deuterium oxide, by the MTT (3-(4,5-dimethylthiazol-2-yl)-2,5-diphenyltetrazolium bromide) assay
(§2) 1. A bottle of cells that had been cultured for 3 to 4 days and were in the exponential phase was taken, a suitable amount of 0.25% Trypsin-EDTA solution was added thereto to detach the cells from the wall, and the cells were suspended in 10 ml RPMI 1640 medium containing 10% FBS. 2. The cells were counted on a hemocytometer, and generally viable cells should be not less than 97%. 3. The cell suspension was diluted with a complete medium to prepare a suspension containing 1×10^4 cells/ml. 4. To each well of a 12-well culture plate, 300 μl cell suspension was added. The addition of cells should be finished within 4 hours. The plate was placed in an incubator at 37° C. and 5% CO2 for 24 hours. 5. Powdery RPMI Medium 1640 (Gibco, USA, Cat#: 31800-022) was dissolved in deuterium oxide (provided by Cambridge Isotope Laboratories, Inc. (US)) to prepare a cell culture medium (unless particularly specified, all culture media used in the Examples hereinafter were prepared from powdery RPMI Medium 1640 and deuterium oxide) at a concentration shown in Table 1, which was added into the cell culture plate. 6. The cell culture plate was incubated for 3 days in an incubator at 37° C., 5% CO2 and 100% humidity. 7. A solution of 1 mg/ml MTT was prepared in a serum-free RPMI1640 medium, added to the plate at 200 μl/well, and incubated at 37° C. for 4 hours, to allow MTT to be reduced to formazan. 8. The supernatant was removed by pipetting, 200 μl DMSO was added to dissolve formazan, and the solution was well mixed on a platform shaker. 9. Absorbance of each well was measured on an ELISA reader with a detection wavelength of 570 nm and a reference wavelength of 450 nm. 10. The assay was repeated one more time.
(§3) Calculation of results: Inhibition of growth of tumor cells by deuterium oxide was calculated using tumor cells treated with sodium chloride physiological solution as a control group. Inhibition of cell growth was plotted against amounts of deuterium oxide to obtain a dose response curve, from which the half maximal inhibitory concentration (IC50) of deuterium oxide was derived.
(§4) Inhibition of tumor cell growth (%)=(1−OD test/OD control)×100%

[2] = system: BGC-823 gastric cancer cell line
Method: as §1, §2, §3, §4

[3] = system: A549 lung cancer cell line
Method: as §1, §2, §3, §4

[4] = system: PC-3 prostate cancer cell line
Method: as §1, §2, §3, §4

[5] = system: 5637 bladder cancer cell line
Method: as §1, §2, §3, §4

[6] = system: U2-OS osteosarcoma cell line
Method: as §1, §2, §3, §4

[7] = system: ASPC-1 pancreatic cancer cell line
Method: as §1, §2, §3, §4

[8] = system: SKOV3 ovarian cancer cell line
Method: as §1, §2, §3, §4

[2H]O[2H] [Deuterium oxide]
Inhibition of growth (%) ([1]; deuterium oxide 1.2% (v/v)): 0.84% | Inhibition of growth (%) ([1]; deuterium oxide 2.5% (v/v)): −8.29% | Inhibition of growth (%) ([1]; deuterium oxide 5% (v/v)): −7.44% | Inhibition of growth (%) ([1]; deuterium oxide 10% (v/v)): −4.95% | Inhibition of growth (%) ([1]; deuterium oxide 20% (v/v)): 5.60% | Inhibition of growth (%) ([1]; deuterium oxide 30% (v/v)): 6.66% | Inhibition of growth (%) ([1]; deuterium oxide 40% (v/v)): 24.03% | Inhibition of growth (%) ([1]; deuterium oxide 50% (v/v)): 39.10% | Inhibition of growth (%) ([1]; deuterium oxide 60% (v/v)): 51.93% | Inhibition of growth (%) ([1]; deuterium oxide 70% (v/v)): 79.65% | Inhibition of growth (%) ([1]; deuterium oxide 80% (v/v)): 87.23% | IC10 ([1]; expressed in v/v %): 27.00% | IC50 ([1]; expressed in v/v %): 62.61% | Inhibition of growth (%) ([2]; deuterium oxide 1.2% (v/v)): 2.74% | Inhibition of growth (%) ([2]; deuterium oxide 2.5% (v/v)): 2.15% | Inhibition of growth (%) ([2]; deuterium oxide 5% (v/v)): −4.23% | Inhibition of growth (%) ([2]; deuterium oxide 10% (v/v)): −3.60% | Inhibition of growth (%) ([2]; deuterium oxide 20% (v/v)): 9.09% | Inhibition of growth (%) ([2]; deuterium oxide 30% (v/v)): 12.32% | Inhibition of growth (%) ([2]; deuterium oxide 40% (v/v)): 7.50% | Inhibition of growth (%) ([2]; deuterium oxide 50% (v/v)): 15.99% | Inhibition of growth (%) ([2]; deuterium oxide 60% (v/v)): 37.83% | Inhibition of growth (%) ([2]; deuterium oxide 70% (v/v)): 61.90% | Inhibition of growth (%) ([2]; deuterium oxide 80% (v/v)): 74.57% | IC10 ([2]; expressed in v/v %): 26.92% | IC50 ([2]; expressed in v/v %): 96.68% | Inhibition of growth (%) ([3]; deuterium oxide 1.2% (v/v)): 7.71% | Inhibition of growth (%) ([3]; deuterium oxide 2.5% (v/v)): 17.64% | Inhibition of growth (%) ([3]; deuterium oxide 5% (v/v)): 18.05% | Inhibition of growth (%) ([3]; deuterium oxide 10% (v/v)): 18.88% | Inhibition of growth (%) ([3]; deuterium oxide 20% (v/v)): 16.19% | Inhibition of growth (%) ([3]; deuterium oxide 30% (v/v)): 27.71% | Inhibition of growth (%) ([3]; deuterium oxide 40% (v/v)): 39.37% | Inhibition of growth (%) ([3]; deuterium oxide 50% (v/v)): 42.67% | Inhibition of growth (%) ([3]; deuterium oxide 60% (v/v)): 55.42% | Inhibition of growth (%) ([3]; deuterium oxide 70% (v/v)): 70.88% | Inhibition of growth (%) ([3]; deuterium oxide 80% (v/v)): 92.34% | IC10 ([3]; expressed in v/v %): 1.52% | IC50 ([3]; expressed in v/v %): 55.32% | Inhibition of growth (%) ([4]; deuterium oxide 1.2% (v/v)): 0.46% | Inhibition of growth (%) ([4]; deuterium oxide 2.5% (v/v)): 4.33% | Inhibition of growth (%) ([4]; deuterium oxide 5% (v/v)): −2.50% | Inhibition of growth (%) ([4]; deuterium oxide 10% (v/v)): 8.81% | Inhibition of growth (%) ([4]; deuterium oxide 20% (v/v)): −16.46% | Inhibition of growth (%) ([4]; deuterium oxide 30% (v/v)): 26.67% | Inhibition of growth (%) ([4]; deuterium oxide 40% (v/v)): 43.19% | Inhibition of growth (%) ([4]; deuterium oxide 50% (v/v)): 59.42% | Inhibition of growth (%) ([4]; deuterium oxide 60% (v/v)): 60.84% | Inhibition of growth (%) ([4]; deuterium oxide 70% (v/v)): 73.42% | Inhibition of growth (%) ([4]; deuterium oxide 80% (v/v)): 87.08% | IC10 ([4]; expressed in v/v %): 9.35% | IC50 ([4]; expressed in v/v %): 61.34% | Inhibition of growth (%) ([5]; deuterium oxide 1.2% (v/v)): 0.84% | Inhibition of growth (%) ([5]; deuterium oxide 2.5% (v/v)): −3.09% | Inhibition of growth (%) ([5]; deuterium oxide 5% (v/v)): 10.44% | Inhibition of growth (%) ([5]; deuterium oxide 10% (v/v)): 16.15% | Inhibition of growth (%) ([5]; deuterium oxide 20% (v/v)): 25.56% | Inhibition of growth (%) ([5]; deuterium oxide 30% (v/v)): 36.69% | Inhibition of growth (%) ([5]; deuterium oxide 40% (v/v)): 44.32% | Inhibition of growth (%) ([5]; deuterium oxide 50% (v/v)): 52.11% | Inhibition of growth (%) ([5]; deuterium oxide 60% (v/v)): 59.76% | Inhibition of growth (%) ([5]; deuterium oxide 70% (v/v)): 74.86% | Inhibition of growth (%) ([5]; deuterium oxide 80% (v/v)): 88.43% | IC10 ([5]; expressed in v/v %): 4.46% | IC50 ([5]; expressed in v/v %): 59.08% | Inhibition of growth (%) ([6]; deuterium oxide 1.2% (v/v)): −2.81% | Inhibition of growth (%) ([6]; deuterium oxide 2.5% (v/v)): 4.20% | Inhibition of growth (%) ([6]; deuterium oxide 5% (v/v)): −1.64% | Inhibition of growth (%) ([6]; deuterium oxide 10% (v/v)): −8.55% | Inhibition of growth (%) ([6]; deuterium oxide 20% (v/v)): −3.12% | Inhibition of growth (%) ([6]; deuterium oxide 30% (v/v)): 11.99% | Inhibition of growth (%) ([6]; deuterium oxide 40% (v/v)): 10.23% | Inhibition of growth (%) ([6]; deuterium oxide 50% (v/v)): 18.21% | Inhibition of growth (%) ([6]; deuterium oxide 60% (v/v)): 23.43% | Inhibition of growth (%) ([6]; deuterium oxide 70% (v/v)): 29.64% | Inhibition of growth (%) ([6]; deuterium oxide 80% (v/v)): 45.84% | IC10 ([6]; expressed in v/v %): 24.99% | IC50 ([6]; expressed in v/v %): 86.25% | Inhibition of growth (%) ([7]; deuterium oxide 1.2% (v/v)): 0.64% | Inhibition of growth (%) ([7]; deuterium oxide 2.5% (v/v)): 6.35% | Inhibition of growth (%) ([7]; deuterium oxide 5% (v/v)): −0.20% | Inhibition of growth (%) ([7]; deuterium oxide 10% (v/v)): −4.88% | Inhibition of growth (%) ([7]; deuterium oxide 20% (v/v)): −7.26% | Inhibition of growth (%) ([7]; deuterium oxide 30% (v/v)): 9.70% | Inhibition of growth (%) ([7]; deuterium oxide 40% (v/v)): 23.99% | Inhibition of growth (%) ([7]; deuterium oxide 50% (v/v)): 44.14% | Inhibition of growth (%) ([7]; deuterium oxide 60% (v/v)): 52.22% | Inhibition of growth (%) ([7]; deuterium oxide 70% (v/v)): 70.14% | Inhibition of growth (%) ([7]; deuterium oxide 80% (v/v)): 85.83% | IC10 ([7]; expressed in v/v %): 11.80% | IC50 ([7]; expressed in v/v %): 57.00% | Inhibition of growth (%) ([8]; deuterium oxide 1.2% (v/v)): 1.82% | Inhibition of growth (%) ([8]; deuterium oxide 2.5% (v/v)): 7.35% | Inhibition of growth (%) ([8]; deuterium oxide 5% (v/v)): 8.33% | Inhibition of growth (%) ([8]; deuterium oxide 10% (v/v)): 9.65% | Inhibition of growth (%) ([8]; deuterium oxide 20% (v/v)): 12.64% | Inhibition of growth (%) ([8]; deuterium oxide 30% (v/v)): 16.69% | Inhibition of growth (%) ([8]; deuterium oxide 40% (v/v)): 32.76% | Inhibition of growth (%) ([8]; deuterium oxide 50% (v/v)): 41.80% | Inhibition of growth (%) ([8]; deuterium oxide 60% (v/v)): 59.84% | Inhibition of growth (%) ([8]; deuterium oxide 70% (v/v)): 74.07% | Inhibition of growth (%) ([8]; deuterium oxide 80% (v/v)): 90.42%
